The values that follow come from US6552038B1, “Anticoagulant agents” (Eli Lilly and Company, priority 1996, dated 2003).

Counter-ions that a name gives are not always drawn.

Series [1] has as its target human thrombin (Homo sapiens, UniProt P00734). The series can be described thus: Inhibition of the amidase activity of thrombin (chromogenic substrate), Kass. It is filed as biochemical. The following applies: purified human thrombin, N-benzoyl-L-Phe-L-Val-L-Arg-p-nitroanilide, pH 7.4; mean value. The protocol:
The assay is carried out by mixing 50 μl buffer (0.03M Tris, 0.15M NaCl, pH 7.4) with 25 μl of human thrombin solution (purified human thrombin, Enzyme Research Laboratories, South Bend, Ind., at 8 NIH units/ml) and 25 μl of test compound in a solvent (50% aqueous methanol (v:v)). Then 150 μl of an aqueous solution of the chromogenic substate (at 0.25 mg/ml) are added and the rates of hydrolysis of the substrate are measured by monitoring the reactions at 405 nm for the release of p-nitroaniline. Standard curves are constructed by plotting free thrombin concentration against hydrolysis rate. The hydrolysis rates observed with test compounds are then converted to “free thrombin” values in the respective assays by use of the standard curves. The bound thrombin (bound to test compound) is calculated by subtracting the amount of free thrombin observed in each assay from the known initial amount of thrombin used in the assay. The amount of free inhibitor in each assay is calculated by subtracting the number of moles of bound thrombin from the number of moles of added inhibitor (test compound). […]
Kass is calculated for a range of concentrations of test compounds and the mean value reported in units of liter per mole. […] For example, each of the particularly preferred examples of the invention listed above was determined to have a Kass of at least 100×10^6 L/mole.

Series [2] deals with human or animal plasma. The series can be described thus: Anticoagulation determination: thrombin time (TT) in plasma. The following applies: compound added to plasma; linear extrapolation to doubling of thrombin time. How it is done: Dog plasma and rat plasma are obtained from conscious mixed-breed hounds (either sex, hazelton-LRE, Kalamazoo, Mich., U.S.A.) or from anesthetized male Sprague-Dawley rats (Harlan Sprague-Dawley, Inc., Indianapolis, Ind., U.S.A.) by venipuncture into 3.8 percent citrate. Fibrinogen is prepared from in-date ACD human blood as the fraction I-2 according to previous procedures and specifications. Smith, Biochem. J., 185, 1-11 (1980); and Smith, et al., Biochemistry, 11, 2958-2967 (1972). Human fibrinogen is also purchased as 98 percent pure/plasmin free from American Diagnostica, Greenwich, Conn. Coagulation reagents ACTIN, Thromboplastin, and Human plasma are from Baxter Healthcare Corp., Dade Division, Miami, Fla. Bovine thrombin from Parke-Davis (Detroit, Mich.) is used for coagulation assays in plasma.
Coagulation assay procedures are as previously described. Smith, et al., Thrombosis Research, 50, 163-174 (1988). A CoAScreener coagulation instrument (American LABor, Inc.) is used for all coagulation assay measurements. The thrombin time (TT) is measured by adding 0.05 ml saline and 0.05 ml thrombin (10 NIH units/ml) to 0.05 ml test plasma. The activated partial thromboplastin time (APTT) is measured by incubation of 0.05 ml test plasma with 0.05 ml Actin reagent for 120 seconds followed by 0.05 ml CaCl2 (0.02 M). The prothrombin time (PT) is measured by adding 0.05 ml saline and 0.05 ml Thromboplastin-C reagent to 0.05 ml test plasma. The compounds of formula I are added to human or animal plasma over a wide range of concentrations to determine prolongation effects on the TT, APTT and PT assays. Linear extrapolations are performed to estimate the concentrations required to double the clotting time for each assay. Each of the particularly preferred examples of the invention listed above was determined to have a TT value of less than 50 ng/mL. For example, the respective values (in ng/mL) for TT were 6, 6 and 23 for the compounds of Examples 1, 3 and 5.

Series [3] in a line: Octanol/water distribution coefficient logD at pH 7.4. It is filed as physicochemical.

For `Cl.N=C(N)c1ccc(CNC(=O)[C@@H]2CCCN2C(=O)[C@@H](CC2CCCCC2)NCC(=O)O)cc1O` [Example 3, N-carboxymethyl-D-cyclohexylalanyl-N-[[4-(aminoiminomethyl)-3-hydroxyphenyl]methyl]-L-prolinamide hydrochloride], the “Kass (hypothetical equilibrium constant for the reaction between thrombin and the test compound)” value in series [1] is on record as 1,200×10^6 L/mole. For the same compound, the “TT value (concentration required to double the clotting time, thrombin time)” value (shortened to “TT value”) in series [2] was 6 ng/mL. Moreover, the “logD(7.4)” value in series [3] is given as 0.55.
On to `CCS(=O)(=O)N[C@H](CC1CCCCC1)C(=O)N1CCC[C@H]1C(=O)NCc1ccc(C(=N)N)c(O)c1` [Example 5, N-ethylsulfonyl-D-cyclohexylalanyl-N-[[4-(aminoiminomethyl)-3-hydroxyphenyl]methyl]-L-prolinamide hydrochloride], for which, in series [2], the “TT value” value was 23 ng/mL.
Regarding `N=C(N)c1ccc(CNC(=O)[C@@H]2CCCN2C(=O)[C@H](N)CC2CCCCC2)cc1O` [Example 1, D-cyclohexylalanyl-N-[[4-(aminoiminomethyl)-3-hydroxyphenyl]methyl]-L-prolinamide dihydrochloride], the “TT value” value in series [2] is 6 ng/mL.
